Source: EPA's ToxValDB 9.5
Several values for one entry are separate records, joined by “and”; a condition that tells them apart may be missing. Equal entries are not always repeated. Values belong to the compound of their own block, whether it stands above or below them.

Key:
Rattus norvegicus [1] = details: repeat dose other; oral
Rattus norvegicus [2] = details: oral, gavage
Rattus norvegicus [3] = details: for LD50: acute
Mus musculus [4] = details: for LD50: acute; for LOAEL / NOAEL: gavage; for LOAEL / NOAEL / NOAEL (% diet) / LOAEL (% diet): CD1; for NOAEL (% diet) / LOAEL (% diet): duration: 105 days, drinking water
Rattus norvegicus [5] = details: uterotrophic, Active
Mus musculus [6] = details: uterotrophic, Active
Oryctolagus sp. = details: acute; dermal
Rattus norvegicus [7] = details: oral
Rattus norvegicus [8] = details: subchronic, oral, diet, Fischer 344, Body Weight Changes: decrease + Food Consumption + Hematology: Hgb decrease, RBC decrease, MetHgb increase + Blood Chemistry: TP decrease, …
[9] = developmental, duration: 19 days, inhalation, Sprague-Dawley
[10] = reproduction developmental, duration: 19 days, inhalation, F, Sprague-Dawley
[11] = reproduction developmental, duration: 55 days, oral, diet, generation: F0
[12] = reproduction developmental, duration: 112 days, oral, diet, generation: F0
[13] = reproduction developmental, duration: 112 days, oral, diet, generation: F1
[14] = reproduction developmental, oral, generation: F1
[15] = reproduction developmental, oral, F
[16] = subchronic, duration: 3 months, oral, diet, BOR/WISW (SPF Cpb)
[17] = duration: 3 days, injection, intraperitoneal
[18] = duration: 3 days, injection, subcutaneous
[19] = duration: 7 days, injection, subcutaneous

SMILES: Clc1cc2oc3c(Cl)c(Cl)c(Cl)cc3c2cc1Cl [2,3,4,7,8-Pentachlorodibenzofuran]
- LOAEL (Rattus norvegicus [1]): 0.00016 mg/kg-day
- NOAEL (Rattus norvegicus [1]): 1.6e-05 mg/kg-day
- LOAEL (Rattus norvegicus [2]; chronic, duration: 105 weeks, F, Harlan Sprague-Dawley, hepatic, endocrine): 6e-06 mg/kg-day
- NOAEL (Rattus norvegicus [2]; developmental, duration: 1 days, M/F, Wistar, developmental): 0.0005 mg/kg-day

SMILES: CCO [Ethanol]
- LOAEL (Rattus norvegicus [1]): 319 mg/kg-day
- NOAEL (Rattus norvegicus [1]): 31.9 mg/kg-day
- LD50 (Rattus norvegicus [3]; injection, Intraperitoneal, Wistar): 6710 mg/kg and 5100 mg/kg
- LD50 (Rattus norvegicus [3]; oral, Wistar): 10600 mg/kg and 7060 mg/kg
- LOAEL (Rattus norvegicus [3]; [9]): > 37700 mg/m3
- NOAEL (Rattus norvegicus [3]; [9]): ≥ 37700 mg/m3
- LOAEL (Rattus norvegicus [3]; [10]): 37700 mg/m3
- NOAEL (Rattus norvegicus [3]; [10]): 30100 mg/m3
- LOAEL (% diet) (Rattus norvegicus [3]; [11]): 5
- NOAEL (% diet) (Rattus norvegicus [3]; [11]): 2
- LOAEL (% diet) (Rattus norvegicus [3]; [12]): ≤ 5
- NOAEL (% diet) (Rattus norvegicus [3]; [12]): < 5
- LOAEL (% diet) (Rattus norvegicus [3]; [13]): > 5
- NOAEL (% diet) (Rattus norvegicus [3]; [13]): ≤ 5
- LD50 (Mus musculus [4]; injection, Intraperitoneal, Swiss-Webster): 9200 mg/kg
- LD50 (Mus musculus [4]; oral, NMRI): 8300 mg/kg
- LOAEL (Mus musculus [4]; developmental, oral): > 6400 mg/kg-day
- NOAEL (Mus musculus [4]; developmental, oral): ≥ 6400 mg/kg-day
- NOAEL (% diet) (Mus musculus [4]; reproduction developmental, oral, generation: F0): 15
- LOAEL (% diet) (Mus musculus [4]; [14]): 15
- NOAEL (% diet) (Mus musculus [4]; [14]): 10
- LOAEL (% diet) (Mus musculus [4]; reproduction developmental, oral, generation: F2): > 15
- LOAEL (Mus musculus [4]; [15]): 3600 mg/kg-day
- NOAEL (Mus musculus [4]; [15]): 2200 mg/kg-day

SMILES: CC(C)(C)CC(C)(C)c1ccc(O)cc1 [4-(1,1,3,3-Tetramethylbutyl)phenol]
- LEL (Rattus norvegicus [5]; duration: 1 days, injection, subcutaneous): 200 mg/kg-day and 600 mg/kg-day
- LEL (Rattus norvegicus [5]; duration: 2 days, injection, subcutaneous): 50 mg/kg-day
- LEL (Rattus norvegicus [5]; duration: 14 days, injection, subcutaneous): 25 mg/kg-day
- LEL (Mus musculus [6]; duration: 9 days, injection, subcutaneous): 50 mg/kg-day
- LD50 (Rattus norvegicus [3]; oral): 2200 mg/kg
- LD50 (Rattus norvegicus [3]; oral, Sprague-Dawley): > 2000 mg/kg
- NOAEL (Rattus norvegicus [3]; reproduction developmental, oral, diet, Sprague-Dawley): ≥ 2000 ppm
- NOAEL (Rattus norvegicus [3]; reproduction developmental, oral, diet, Sprague-Dawley, generation: F0): 200 ppm
- NOAEL (Rattus norvegicus [3]; reproduction developmental, oral, diet, Sprague-Dawley, generation: F1): 200 ppm
- LOAEL (Rattus norvegicus [3]; [16]): 28.8 mg/kg-day
- NOAEL (Rattus norvegicus [3]; [16]): 2.88 mg/kg-day
- LD50 (Oryctolagus sp.): > 2000 mg/kg

SMILES: Clc1cc(Cl)c(Cl)c(-c2cc(Cl)c(-c3cc(Cl)c(Cl)c(Cl)c3)c(Cl)c2Cl)c1 [Aroclor 5460]
- NOAEL (Rattus norvegicus [7]; chronic, duration: 95 days, diet, M, albino): 7.13 mg/kg-day

SMILES: [O-2].[Zn+2] [Zinc oxide]
- LOAEL (Rattus norvegicus [1]): 320 mg/kg-day
- NOAEL (Rattus norvegicus [1]): 160 mg/kg-day

- LEL (Rattus norvegicus [5]; [17]): 0.001 mg/day
- LEL (Rattus norvegicus [5]; duration: 3 days, oral): 0.01 mg/kg-day
- LEL (Rattus norvegicus [5]; duration: 14 days, oral): 0.001 mg/day
- LEL (Mus musculus [6]; [18]): 0.5 µg/0.1 mL
- LEL (fractional dose of pill) (Mus musculus [6]; duration: 3 days, oral): 0.001
SMILES: C#C[C@]1(O)CC[C@H]2[C@@H]3CCc4cc(OC)ccc4[C@H]3CC[C@@]21C [Mestranol]

SMILES: O=[N+]([O-])[O-].O=[N+]([O-])[O-].O=[N+]([O-])[O-].[Sm+3] [Samarium nitrate]
- LOAEL (Rattus norvegicus [7]; chronic, duration: 5 months, drinking water, M/F, Sprague-Dawley): 0.438 mg/kg-day

- LEL (Rattus norvegicus [5]; [17]): 500 mg/kg-day
- LEL (Mus musculus [6]; [19]): 300 mg/kg-day
- LEL (Mus musculus [6]; duration: 7 days, oral): 1000 mg/kg-day
SMILES: O=C(c1ccccc1)c1ccc(O)cc1O [2,4-Dihydroxybenzophenone]

SMILES: CC1(C)CCCCC1(C)C [Tetramethylcyclohexane]
- NOAEL (Rattus norvegicus [7]; subchronic, duration: 90 days, diet, M/F, Sprague-Dawley, Whole Body Effects): 3000 mg/kg-day

- LEL (Rattus norvegicus [5]; [18]): 100 mg/kg-day and 200 mg/kg-day and 230 mg/kg-day
- LEL (Rattus norvegicus [5]; duration: 5 days, oral): 100 mg/kg-day and 250 mg/kg-day
- LEL (Rattus norvegicus [5]; duration: 90 days, oral, diet): 185 mg/kg-day
- LEL (Mus musculus [6]; [19]): 300 mg/kg-day
- LEL (Mus musculus [6]; duration: 7 days, oral): 1000 mg/kg-day
SMILES: O=C(c1ccc(O)cc1O)c1ccc(O)cc1O [2,2',4,4'-Tetrahydroxybenzophenone]

SMILES: Cc1ccc([N+](=O)[O-])cc1 [4-Nitrotoluene]
- LOAEL (Rattus norvegicus [7]; subchronic, duration: 13 weeks, diet, M, Fischer 344, Immune): 42 mg/kg-day
- LEL (Rattus norvegicus [5]; duration: 1 days, injection, intraperitoneal): 30 mg/kg-day
- NOEL (Rattus norvegicus [8]; F): < 44 mg/kg-day
- NOEL (Rattus norvegicus [8]; M/F): < 60 mg/kg-day

SMILES: Nc1cccc([N+](=O)[O-])c1 [3-Nitroaniline]
- LOAEL (Rattus norvegicus [7]; short-term, duration: 28 days, gavage, M/F, Fischer 344): 15 mg/kg-day

SMILES: CCCCCCCCCC [Decane]
- NOAEL (Rattus norvegicus [7]; subchronic, duration: 8 weeks, gavage, M/F, Sprague-Dawley): 1000 mg/kg-day
